Measured values: patent publication US20120058948A1, “Collagen peptides as immune modulators” (priority 2006, published 2012)
Entries after “also recorded” stand apart in the source; their conditions may differ. Square brackets hold non-standard residues; d marks the D form. Ends that are not written are not given here. Hyp = O=C(O)[C@@H]1C[C@@H](O)CN1

Tested on: human peripheral blood monocytes (HPBMs) activated with LPS
Assay: LPS-induced IL-1β production (ELISA) from activated HPBMs incubated with LPS and peptide
Type: cell-based
Details: for effect on LPS-induced IL-1β production from HPBMs: LPS 3.3×10^−7 M plus peptide 10^−7, 10^−8 or 10^−9 M, compared with LPS alone, FIG. 3; for effect on LPS-induced IL-1β production at all concentrations studied: all peptide concentrations studied (10^−7 to 10^−9 M), FIGS. 3B-D
Method: Samples (10 mg each) of peptide p1 (Lot #10055791, Genemed Synthesis Inc., San Francisco, Calif.), p2 (Lot #10059702, Genemed Synthesis Inc.) and p3 (Lot #10059701, Genemed Synthesis Inc.) were obtained with >98% purity. Each peptide was diluted with phosphate buffered saline (PBS, […], pH 7.2, 20012-043, Invitrogen Corp., Carlsbad, Calif.) yielding solutions of 10 mg/mL. The peptide solutions were incubated at 4° C. for 24 hours, then stored at −80° C. until required. Glucagon (G2044, Sigma-Aldrich, St. Louis, Mo.) was stored, defrosted and treated in an identical manner to p1, p2 and p3.
Human peripheral blood monocytes were isolated from whole blood supplied by a healthy […] as follows. A 45 mL sample was drawn using 3.2% sodium citrate vacuum tubes. Whole blood was then diluted with a 2.5 mM PBS solution (0.1M, […], Sterile, S02131, Teknova Inc., Hollister, Calif.) to form a solution having a 1:2 ratio of blood:PBS solution. Red blood cells were subsequently removed by density gradient separation using a 1:1 ratio of Histopaque-1077 (Sigma-Aldrich) and centrifuged for 30 minutes at 400×g at 25° C. The plasma layer was removed by aspiration, and the buffy layer, comprising lymphocytes, monocytes and platelets, was collected into two 50 mL conical tubes. To remove the excess histopaque, platelets and plasma, the cells were centrifuged at 250×g for an additional 10 minutes at 4° C. The supernatant was removed and the cells resuspended in 2.5 mM PBS sodium citrate and centrifuged again. The platelet-enriched supernatant was removed after the second wash, leaving a cell pellet in each of the two tubes.
The remainder of the monocyte isolation was carried out using a MS 130-041-201 column (MACS, Miltenyi Biotec, Bergisch Gladbach, Germany) and Human Monocyte Isolation Kit II (MACS, Miltenyi Biotec) as outlined by the manufacturer. The column was washed with 1 mL of 1% heat inactivated fetal bovine serum (1% HI-FBS, USA origin, sterile-filtered, cell culture tested, hybridoma tested, F2442 Sigma-Aldrich) in a PBS sodium citrate solution. The cell pellets were combined into one tube. The cell solution was centrifuged at 300×g at 4° C. and the supematant removed before adding 30 microliters of 1% HI-FBS, 20 microliters FCR blocking agent and 20 microliters monocyte biotin-antibody cocktail per 10^7 cells to the pellet. The tube was lightly agitated then chilled for 10 minutes at 4° C. Anti-biotin microbeads (40 microliters) and 30 microliters of additional 1% HI-FBS per 10^7 cells were added to each tube. The tube was vortexed for three to five seconds to mix, then set to chill at 4° C. for another 15 minutes.
After the incubation at 4° C., 2 mL of 1% HI-FBS were added, and the sample was centrifuged for 10 minutes at 300×g at 25° C. to remove excess antibodies and beads. The supernatant was removed and the pellet carefully re-suspended in 500 microliters of 1% HI-FBS. This cell solution was added to the column, and no further fluid was added until the flow of solution through the column had stopped. The tube and column were washed three times with 500 microliters of 1% HI-FBS, and the fluid was collected for cell culture. Subsequent fluorescence activated cell sorter (FACS) analysis of tissue culture samples confirmed a monocyte purity of >82%. Monocytes were seeded at 5×10^5 per well and cultured in 10% FBS RPMI 1640 and allowed to incubate at 37° C. in 5% CO2.
Because the peptides under investigation can spontaneously form triple-helical structures in solution, the peptides were heated to 90° C. for two minutes prior to introducing them to HPBM cultures to ensure that unfolded peptides, corresponding to the collagen-degradation products, were used for the experiments. The peptide solutions were then diluted with RPMI 1640 10% FBS at 37° C., yielding a final concentration of 1 microgram/mL. Serial dilutions of the peptide samples were performed to obtain the solutions at the desired concentration. […]

Row | Sequence | effect on LPS-induced IL-1β production from HPBMs | effect on LPS-induced IL-1β production at a relatively high concentration of peptide (LPS 3.3×10^−7 M, relatively high peptide concentration (close to that in synovial fluid of RA patients), FIG. 3A/3D) | effect on LPS-induced IL-1β production at all concentrations studied (LPS 3.3×10^−7 M) | time at which elevated IL-1β levels began, peptide p1 relative to peptide p3 (LPS 3.3×10^−7 M plus peptide, sampling every four hours for 28 hours)
1 | HSQGTIFTSDYSKYLDSRRAQDFVQWLMNT [peptide p0, reference compound] | no significant effect | not statistically significant | – | –
2 | POGPOGPOGAOGLRGGAGPAGPOGPOGPOG (P[Hyp]GP[Hyp]GP[Hyp]GA[Hyp]GLRGGAGPAGP[Hyp]GP[Hyp]GP[Hyp]G; ends and bridges not checked) [peptide p3, models a relatively imino-poor but relatively rigid collagen segment near a gelatinase scissile bond, flanked by POG triplets] | additive effect; also recorded: greatest effect; also recorded: augmented | – | augment | –
3 | POGPOGPOGPOGPOGPOGPOGPOGPOGPOG [peptide p1] | additive effect; also recorded: augmented | – | augment | later time
